Where two headings read alike, the source gives them in different places.
Columns and labels:
[1] = system: hepatocyte tethered spheroids; assay: Inhibition of spheroid spreading/tethering (live cell imaging of spheroid diameter); type: cell-based; conditions: 24 hour live cell imaging, tethered spheroids on modified PS plates
Experimental: Hepatocytes were cultured as mentioned in section 2.1 and 2.2. Once spheroid formation was observed (2–3 days after cell seeding), cells were treated with DMSO or relevant hepatotoxicants (APAP/troglitazone) at different concentrations. 24 hour live cell imaging was performed starting 2 hours after drug addition using IN Cell Analyzer 2000 Imaging System (GE Healthcare Lifesciences, Buckinghamshire, U.K.). Images were acquired every 2 hours. Images acquired at 2 hours, 8 hours, 16 hours and 24 hours were used for further analysis. Individual spheroids were identified by image segmentation using Matlab Image Processing Toolbox and Statistical Toolbox (Mathworks) and the sizes of the spheroids were determined. Density plots were acquired in R (Version 3.1.2) to show the spheroid size distribution and percentage of spheroids within a certain diameter range at different drug concentrations was plotted in Excel.

hepatocytes = conditions: cited from earlier work
[2] = system: primary human hepatocytes (PHHs) spheroids on the TS-PS system; assay: Alamar Blue cell viability of PHHs tethered spheroids on PS plates (TS-PS); type: cell-based; conditions: Hepatocyte, PHHs in TS-PS, 24 hours after treatment, 3 donors
Experimental: Cryopreserved PHHs were purchased commercially from Life Technologies (Carlsbad, CA, USA) and BD Biosciences (Franklin Lakes, NJ, USA). Freshly thawed cells were cultured as described[32] with daily culture media change. Hepatocytes from three different donors (three lots of commercial cells) were used for the experiments and all assays were performed after 72 hours of culture.
Cell viability of hepatocytes was measured 24 hours after treatment with drugs using Alamar Blue cell viability assay according to manufacturer’s instructions. Drugs used for the cell viability assays (Acetaminophen, Troglitazone, Chlorpromazine and Diclofenac) were purchased from Sigma. Stock solutions of drugs were prepared in DMSO and then diluted in media to obtain desired working concentrations. Controls were treated with solvent alone (in absence of test compounds) and considered as 100% viability value.

[3] = system: rat hepatocytes tethered spheroids on modified PS plates; assay: CellTiter-Glo 3D Cell Viability Assay on tethered spheroids with automated liquid handling; type: cell-based; conditions: 200 μM, 24 hours, rat hepatocyte tethered spheroids; DMSO-treated wells 12.32 × 10^6 RLU
Experimental: Primary hepatocytes were harvested from male Wistar rats using a two-step in situ collagenase perfusion method according to protocols described previously[19],[31]. Freshly isolated rat hepatocytes were seeded onto the different substrates at a density of 1 × 10^5 cells/cm^2 in 96-well microplates and cultured in 100 μl of William’s E culture medium supplemented with 1 mg/mL bovine serum albumin (BSA), 10 ng/mL epidermal growth factor, […] insulin, 5 nM dexamethasone, 50 ng/mL linoleic acid, 100 units/mL penicillin and […]. Media was changed daily during the entire culture period. For collagen monolayer culture, neutralized 1.5 mg/ml Type I bovine collagen (Advanced BioMatrix, San Diego, CA, USA) was coated on the surface of the microplates.
Cell attachment and tethered spheroid formation was monitored using phase contrast microscopy for a period of seven days. In addition, CellTiter-Glo 3D Cell Viability Assay (Promega, Madison, Wisconsin, USA), which determines the number of viable cells present in a 3D cell culture/spheroid by quantifying the amount of ATP present, was used to test the variability in cell attachment across the plate and adaptation of the plate to an automated liquid handling system 5 days after cells seeding. […] After that, CellTiter-Glo 3D was added to each of the wells and the relative light units (RLU) were quantified.

Row | SMILES | IC50 ([1]; read-out: Concentration at which spheroids of diameter 90–120 μm decreased by 50% compared to untreated control) [µM] | IC50 (hepatocytes; read-out: IC50 (reported)) [µM] | IC50 [2] [µM] | IC50 ([1]; read-out: IC50 using changes in cellular dynamics (spheroids of diameter 90–120 μm decreased by 50% compared to untreated control)) [µM] | IC50 (hepatocytes; read-out: IC50 (conventional cell viability assays)) [µM] | CellTiter-Glo 3D signal (relative light units) [3]
1 | Cc1c(C)c2c(c(C)c1O)CCC(C)(COc1ccc(CC3SC(=O)NC3=O)cc1)O2 (stereo not drawn) [Troglitazone] | 10 | 140 | 100 | – | – | –
2 | CC(=O)Nc1ccc(O)cc1 [Acetaminophen] | – | – | 50000 | 5000 | 8000 to 40000 | –
3 | O=C(O)Cc1ccccc1Nc1c(Cl)cccc1Cl [Diclofenac] | – | – | 4000 | – | – | –
4 | CN(C)CCCN1c2ccccc2Sc2ccc(Cl)cc21 [Chlorpromazine] | – | – | 122 | – | – | 1.55 × 10^4 RLU

— article PMC7075904, “Tethered primary hepatocyte spheroids on polystyrene multi-well plates for high-throughput drug safety testing” (Scientific Reports, 2020)
